Results on two compounds are retold here after patent US20060263444A1, “Antimicrobial composition” (priority 2005, published 2006).

Several values for one entry are separate records, joined by “and”; a condition that tells them apart may be missing. Identical values can stand only once. Like-named read-outs stand apart in the source and are kept apart here.

In data set [1] the test system is E. coli. As to the kind of experiment: Viable plate count after 24 hr incubation in trypticase soy broth culture. The class given is cell-based. How it is done:
(§1) Sequential dilutions of the above two stock solutions were then prepared also in sterile saline. A portion of 0.05 ml of each dilution was added to 0.95 ml of bacterial culture (trypticase soy broth containing 10^6 CFU/ml). […] The test cultures were incubated at 37° C. for 24 hr, the total viable bacteria were numerated by plate count on Trypticase® soy agar (BBL) containing inactivating agent. The plates were incubated at 37° C. for 48 hr and reported as colony forming unit/ml (CFU/ml).

The test system of data set [2] is S. aureus. The class given is cell-based. The protocol: as §1
For data set [3], the system named is Staphylococcus aureus, E. coli and C. albicans. As to the kind of experiment: Zone of inhibition assay of coated sutures, summary in text. The class given is cell-based. Conditions: coated suture. The protocol:
(§2) The coating solutions were made by dissolving a L(−) lactide/glycolide copolymer containing 65 mole % lactide and 35 mole % glycolide (4.5%) and calcium stearate (4.5%) in ethyl acetate. […] The sutures were hand coated by dipping into the coating solution containing antimicrobial composition and then air dried at room temperature for 8 hr. […] A Petri dish was inoculated with about 10^5 cfu/suture and a portion of 20 ml of TSA tempered at 47° C. was added into the Petri dish. The inoculum was mixed thoroughly with the medium and the suture was placed in the middle of the Petri dish. The inoculated Petri dishes were incubated at 37° C. for 48 hr and then the zone of inhibition was measured with a digital caliper.
(§3) The zone of inhibition assay was performed against S. aureus and E. coli over a two-day period.

The next data set deals with E. faecium. As to the kind of experiment: Viable plate count after 24 hr incubation in trypticase soy broth culture. The class given is cell-based. The protocol:
as §1

The next data set relates to P. aeruginosa. The data set is described as above. The format is cell-based. How it is done: as §1
Data set [4] has as its system C. albicans. The description is as above. The class given is cell-based. How it is done:
as §1

In data set [5] the test system is C. albicans. As to the kind of experiment: Zone of inhibition assay of coated sutures. The class given is cell-based. Conditions: coated suture; 0.5% in coating solution; 37° C. 48 hr.
Data set [6] deals with E. coli. The data set can be described thus: Zone of inhibition assay of coated sutures. Conditions: coated suture; 0.5% in coating solution; 37° C. 48 hr. The format is cell-based. The protocol: as §2, §3
The conditions of data set [7]: rats; cited from earlier work.
The subject of data set [8] is S. aureus. As to the kind of experiment: Zone of inhibition assay of coated sutures. The class given is cell-based, Staphylococcus aureus. As to conditions: coated 2-0 polyglactin 910 suture; 0.5% in coating solution; 37° C. 48 hr. How it is done: as §2, §3
For data set [9] the following is noted: animals and humans; cited from earlier work.
The mark [10] stands for this setting: single agent 10 ppm, 37° C. 24 hr.

Consider `O=[N+]([O-])[O-].[Ag+]` [AgNO3, silver nitrate], for which the “CFU/ml E. coli” value in the data set on E. coli [1] (Table 2, single agent 10 ppm) is on record as 1.2 × 10^9 CFU/ml; with E. coli [1] (Table 2, single agent 20 ppm), 1.0 × 10^8 CFU/ml. Besides, the “CFU/ml S. aureus” value is 9.3 × 10^8 CFU/ml in the data set with S. aureus [2] (Table 2, single agent 10 ppm) and 2.2 × 10^8 CFU/ml with S. aureus [2] (Table 2, single agent 20 ppm).
As to `CCCCCCCCCCCC(=O)N[C@@H](CCCN=C(N)N)C(=O)OCC.Cl` [LAE, ethyl ester of the lauramide of the arginine monohydrochloride], the “zone of inhibition” value in [3] is reported as “no zones of inhibition”. Also, the “reduction of viable bacteria compared to the control, E. faecium” value in the data set with E. faecium (alone at 10 ppm) was below 2 log. In the data set with E. faecium (setting [10]), the “CFU/ml E. faecium” value is reported as 5.0 × 10^7 CFU/ml. In the data set on P. aeruginosa (alone at 10 ppm), the “reduction of viable bacteria compared to the control, P. aeruginosa” value was “no inhibition”. Further, the “CFU/ml P. aeruginosa” value in the data set with P. aeruginosa (setting [10]) is listed as 1.0 × 10^9 CFU/ml. The “reduction of viable bacteria compared to the control, C. albicans” value with C. albicans [4] (alone at 10 ppm) is given as below 2 log. In the data set on C. albicans [4] (setting [10]), the “CFU/ml C. albicans” value is reported as 6.0 × 10^7 CFU/ml. Also, in the data set on E. coli [1], the “reduction of viable bacteria compared to the control, E. coli” value is “no inhibition”. In the data set with E. coli [1] (monohydrochloride), the “CFU/ml E. coli” value was 1.0 × 10^9 CFU/ml and 1.1 × 10^9 CFU/ml. The “CFU/ml S. aureus” value in the data set with S. aureus [2] is reported as 6.4 × 10^8 CFU/ml. For the same compound, the “Zone of inhibition(mm) C. albicans” value with C. albicans [5] was determined as 0 mm. Further, the “Zone of inhibition(mm) E. coli” value in the data set with E. coli [6] turned out to be 0 mm. For the same compound, the absorption and metabolism entry in data set [7] was “fast absorption and metabolism into naturally-occurring amino acids and the lauric acid”. For the same compound, the “Zone of inhibition(mm) S. aureus” value in the data set with S. aureus [8] came to 0 mm. Besides, in data set [9], the toxicological finding result was “completely harmless to animals and humans”.
